Data set [1] has as its target PI3Kδ (Homo sapiens, UniProt O00329). As to the kind of experiment: PI3Kδ kinase assay (ADP-Glo luminescent assay). The format is biochemical. Particulars: for IC50: ADP-Glo, mean ± SD from two separate experiments, Table 1 and text, read-out: PI3Kδ inhibitory activity IC50; for PI3Kδ inhibitory activity (in words): qualitative statement; for decrease in PI3Kδ potency on introduction of 7-fluorine: compared with the non-fluorinated analogue. In general terms: ADP-Glo first removes unused ATP, then detects ADP through luciferase.

In data set [2] the target is T1, PI3Kα (Homo sapiens, UniProt P42336). As to the kind of experiment: PI3Kα kinase assay (kinase-Glo luminescent assay). The format is biochemical. Particulars: for IC50: kinase-Glo, mean ± SD from two separate experiments.
Data set [3] has as its target T2, PI3Kβ (Homo sapiens, UniProt P42338). Put plainly: PI3Kβ kinase assay (ADP-Glo luminescent assay). The class given is biochemical. Conditions: for IC50: ADP-Glo, mean ± SD from two separate experiments.
In data set [4] the target is T3, PI3Kγ (Homo sapiens, UniProt P48736). Put plainly: PI3Kγ kinase assay (ADP-Glo luminescent assay). The format is biochemical. Conditions: mean ± SD from two separate experiments.
For data set [5], the system named is SU-DHL-6 cells. As to the kind of experiment: SU-DHL-6 cell proliferation assay (CellTiter-Glo). The format is cell-based, human. Particulars: for GI50: Homo sapiens, SU-DHL-6 cell growth inhibition, CellTiter-Glo, mean ± SD from two separate experiments; for SU-DHL-6 cell proliferation inhibition (in words): qualitative statement. Here is the method:
The selective PI3Kδ inhibitors 15a and 15b were further evaluated for their antiproliferative activity against human B-cell SU-DHL-6.
Cell proliferation was evaluated by The CellTiter-Glo luminescent cell viability assay (Promega, Shanghai, China) was used to evaluate the inhibitory activity of compounds 15a and 15b following the manufacturer’s protocol. In brief, SU-DHL-6 (ATCC) cells were seeded in 96-well plates (Corning, Los Altos, MA, USA) at density of 1 × 10^4 cells per well, and incubated with medium alone or with the tested compounds at the indicated concentrations (50 μM in DMSO, 3-fold dilution, in duplicate for 10 concentrations). 50 μL CellTiter-Glo (Promega, Shanghai, China) reagent was added to each well to induce cell lysis, and the plate was incubated at room temperature for 10 min to stabilize luminescent signal. After 100 μL of the mixture from each well was transferred to a new 96-well black plate, the […] signal was read on EnVision (Shanghai, China) and the data were analysized by XLFit 4 software (IDBS, Berlin, Germany).
Background: ATP-based viability assays read luminescence as a measure of living cells.

Data set [6] addresses T3, PI3Kγ. On the set-up: method as in PMID 29601991. Particulars: quinazolinone leads, previous work; ref [33]; cited from earlier work.
Data set [7] addresses T1, PI3Kα. On the set-up: method as in PMID 29601991. Conditions: quinazolinone leads, previous work; ref [33]; cited from earlier work.
Data set [8] addresses T2, PI3Kβ. On the set-up: method as in PMID 29601991. Particulars: quinazolinone leads, previous work; ref [33]; cited from earlier work.

The source of these data is article PMC6930582, “Synthesis and Evaluation of Novel 2H-Benzo[e]-[1,2,4]thiadiazine 1,1-Dioxide Derivatives as PI3Kδ Inhibitors” (Molecules, 2019).

Each structure is given as a SMILES string. Entries after “also recorded” stand apart in the source; their conditions may differ. Like-named read-outs stand apart in the source and are kept apart here. A value given as a limit tells only on which side of the number the result lay.

T2 sequence (P42338 whole entry): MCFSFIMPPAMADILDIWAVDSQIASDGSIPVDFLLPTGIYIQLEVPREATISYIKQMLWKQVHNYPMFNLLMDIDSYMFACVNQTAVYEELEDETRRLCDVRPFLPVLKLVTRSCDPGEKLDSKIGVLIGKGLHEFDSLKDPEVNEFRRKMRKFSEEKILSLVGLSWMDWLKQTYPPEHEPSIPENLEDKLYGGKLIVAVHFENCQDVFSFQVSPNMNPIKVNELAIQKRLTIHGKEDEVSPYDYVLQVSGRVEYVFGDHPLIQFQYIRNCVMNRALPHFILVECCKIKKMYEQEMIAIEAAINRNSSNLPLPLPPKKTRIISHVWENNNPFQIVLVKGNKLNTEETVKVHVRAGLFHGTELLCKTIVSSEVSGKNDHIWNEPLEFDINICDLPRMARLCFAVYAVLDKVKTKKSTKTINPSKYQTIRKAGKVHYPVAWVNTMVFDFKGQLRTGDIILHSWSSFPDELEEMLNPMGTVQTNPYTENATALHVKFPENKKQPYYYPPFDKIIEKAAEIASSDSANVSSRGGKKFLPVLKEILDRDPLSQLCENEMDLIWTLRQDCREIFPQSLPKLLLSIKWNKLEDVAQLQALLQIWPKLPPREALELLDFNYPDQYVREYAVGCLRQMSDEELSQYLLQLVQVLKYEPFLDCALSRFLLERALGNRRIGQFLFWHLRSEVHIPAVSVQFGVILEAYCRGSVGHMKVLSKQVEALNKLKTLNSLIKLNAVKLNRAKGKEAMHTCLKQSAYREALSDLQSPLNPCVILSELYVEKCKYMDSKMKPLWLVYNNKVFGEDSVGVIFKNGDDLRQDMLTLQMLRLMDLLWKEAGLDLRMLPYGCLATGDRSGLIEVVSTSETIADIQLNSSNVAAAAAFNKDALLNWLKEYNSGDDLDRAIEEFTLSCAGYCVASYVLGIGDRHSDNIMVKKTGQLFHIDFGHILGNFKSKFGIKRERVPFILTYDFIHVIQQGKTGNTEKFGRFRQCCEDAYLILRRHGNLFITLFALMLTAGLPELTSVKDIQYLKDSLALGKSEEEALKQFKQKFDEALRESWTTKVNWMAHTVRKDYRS
T2 sequence (P27986 whole entry partner): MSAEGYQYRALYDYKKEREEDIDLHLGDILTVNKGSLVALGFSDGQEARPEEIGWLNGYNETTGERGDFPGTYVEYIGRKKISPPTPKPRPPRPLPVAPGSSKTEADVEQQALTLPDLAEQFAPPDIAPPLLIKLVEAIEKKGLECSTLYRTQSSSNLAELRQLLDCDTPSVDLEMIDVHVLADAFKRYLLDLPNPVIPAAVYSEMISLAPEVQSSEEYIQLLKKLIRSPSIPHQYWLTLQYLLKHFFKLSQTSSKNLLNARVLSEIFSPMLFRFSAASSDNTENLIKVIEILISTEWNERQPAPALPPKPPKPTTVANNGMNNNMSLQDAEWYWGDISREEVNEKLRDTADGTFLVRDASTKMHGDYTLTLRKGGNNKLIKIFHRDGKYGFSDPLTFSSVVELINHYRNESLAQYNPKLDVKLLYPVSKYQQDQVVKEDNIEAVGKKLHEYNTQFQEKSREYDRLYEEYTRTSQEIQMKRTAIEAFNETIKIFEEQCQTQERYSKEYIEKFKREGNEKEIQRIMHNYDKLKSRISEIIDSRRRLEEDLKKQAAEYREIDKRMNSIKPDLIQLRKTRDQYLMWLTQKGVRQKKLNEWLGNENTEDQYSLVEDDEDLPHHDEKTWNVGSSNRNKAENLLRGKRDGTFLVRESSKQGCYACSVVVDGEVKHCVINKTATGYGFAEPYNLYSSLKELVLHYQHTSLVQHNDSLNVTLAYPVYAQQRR
T3 sequence (P48736 whole entry): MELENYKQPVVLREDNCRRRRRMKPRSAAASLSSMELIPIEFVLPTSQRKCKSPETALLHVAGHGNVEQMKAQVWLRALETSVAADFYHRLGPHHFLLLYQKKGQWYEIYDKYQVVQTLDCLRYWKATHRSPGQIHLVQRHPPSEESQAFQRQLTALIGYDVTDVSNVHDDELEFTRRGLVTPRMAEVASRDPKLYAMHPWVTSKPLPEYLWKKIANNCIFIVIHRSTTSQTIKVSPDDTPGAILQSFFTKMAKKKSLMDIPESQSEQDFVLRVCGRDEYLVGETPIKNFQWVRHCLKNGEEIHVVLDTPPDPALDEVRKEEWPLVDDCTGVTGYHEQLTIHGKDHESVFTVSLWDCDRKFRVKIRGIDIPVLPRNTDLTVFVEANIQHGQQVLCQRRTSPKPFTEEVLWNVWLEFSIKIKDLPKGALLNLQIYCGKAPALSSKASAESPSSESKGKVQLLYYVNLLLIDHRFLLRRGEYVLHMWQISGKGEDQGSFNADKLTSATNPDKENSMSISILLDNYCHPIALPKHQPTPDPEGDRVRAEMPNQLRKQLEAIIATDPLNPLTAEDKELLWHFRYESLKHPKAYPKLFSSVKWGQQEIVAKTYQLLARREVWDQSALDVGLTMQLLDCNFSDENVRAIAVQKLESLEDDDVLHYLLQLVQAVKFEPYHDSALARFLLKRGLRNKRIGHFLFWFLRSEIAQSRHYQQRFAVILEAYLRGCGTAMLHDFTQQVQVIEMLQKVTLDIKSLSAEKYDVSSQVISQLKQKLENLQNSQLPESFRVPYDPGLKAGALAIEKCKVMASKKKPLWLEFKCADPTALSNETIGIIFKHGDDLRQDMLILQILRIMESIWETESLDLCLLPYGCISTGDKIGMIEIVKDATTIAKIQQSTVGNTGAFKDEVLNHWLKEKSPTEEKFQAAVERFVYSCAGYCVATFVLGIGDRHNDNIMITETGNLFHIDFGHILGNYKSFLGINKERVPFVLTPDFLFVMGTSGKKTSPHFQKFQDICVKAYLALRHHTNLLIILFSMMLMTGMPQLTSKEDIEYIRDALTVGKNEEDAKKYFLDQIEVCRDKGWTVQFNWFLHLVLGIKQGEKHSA
T1 sequence (P42336 whole entry): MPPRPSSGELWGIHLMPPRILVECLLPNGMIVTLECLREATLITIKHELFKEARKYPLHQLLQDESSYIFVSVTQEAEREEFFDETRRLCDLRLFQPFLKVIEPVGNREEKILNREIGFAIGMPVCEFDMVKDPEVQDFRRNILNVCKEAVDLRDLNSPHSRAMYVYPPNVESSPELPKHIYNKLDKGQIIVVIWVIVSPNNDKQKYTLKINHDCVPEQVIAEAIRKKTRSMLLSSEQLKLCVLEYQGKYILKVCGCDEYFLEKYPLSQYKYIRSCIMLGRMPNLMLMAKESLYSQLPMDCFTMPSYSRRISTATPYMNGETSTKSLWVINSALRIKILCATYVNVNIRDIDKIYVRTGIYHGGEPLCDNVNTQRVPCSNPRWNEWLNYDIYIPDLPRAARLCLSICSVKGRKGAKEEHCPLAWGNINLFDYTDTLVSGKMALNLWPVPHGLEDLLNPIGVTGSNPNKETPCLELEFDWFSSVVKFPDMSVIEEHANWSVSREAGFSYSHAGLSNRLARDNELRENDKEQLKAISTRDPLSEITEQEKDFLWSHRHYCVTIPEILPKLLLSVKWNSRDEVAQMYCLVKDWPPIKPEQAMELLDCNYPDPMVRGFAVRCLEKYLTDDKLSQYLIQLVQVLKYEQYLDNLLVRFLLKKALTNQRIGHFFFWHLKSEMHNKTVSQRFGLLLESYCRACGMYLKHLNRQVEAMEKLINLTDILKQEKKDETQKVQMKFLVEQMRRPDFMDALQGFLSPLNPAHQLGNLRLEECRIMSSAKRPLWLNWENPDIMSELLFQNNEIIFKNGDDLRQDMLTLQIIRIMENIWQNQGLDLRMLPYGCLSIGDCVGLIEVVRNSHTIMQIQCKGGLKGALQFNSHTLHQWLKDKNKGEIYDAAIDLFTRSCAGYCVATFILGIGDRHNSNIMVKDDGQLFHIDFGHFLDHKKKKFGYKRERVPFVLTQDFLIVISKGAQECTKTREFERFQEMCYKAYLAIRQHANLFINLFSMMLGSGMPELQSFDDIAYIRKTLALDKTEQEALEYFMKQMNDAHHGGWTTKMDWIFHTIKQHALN
T1 sequence (P27986 whole entry partner): as the sequence (P27986 whole entry partner) above
Sequence of PI3Kδ (O00329 whole entry): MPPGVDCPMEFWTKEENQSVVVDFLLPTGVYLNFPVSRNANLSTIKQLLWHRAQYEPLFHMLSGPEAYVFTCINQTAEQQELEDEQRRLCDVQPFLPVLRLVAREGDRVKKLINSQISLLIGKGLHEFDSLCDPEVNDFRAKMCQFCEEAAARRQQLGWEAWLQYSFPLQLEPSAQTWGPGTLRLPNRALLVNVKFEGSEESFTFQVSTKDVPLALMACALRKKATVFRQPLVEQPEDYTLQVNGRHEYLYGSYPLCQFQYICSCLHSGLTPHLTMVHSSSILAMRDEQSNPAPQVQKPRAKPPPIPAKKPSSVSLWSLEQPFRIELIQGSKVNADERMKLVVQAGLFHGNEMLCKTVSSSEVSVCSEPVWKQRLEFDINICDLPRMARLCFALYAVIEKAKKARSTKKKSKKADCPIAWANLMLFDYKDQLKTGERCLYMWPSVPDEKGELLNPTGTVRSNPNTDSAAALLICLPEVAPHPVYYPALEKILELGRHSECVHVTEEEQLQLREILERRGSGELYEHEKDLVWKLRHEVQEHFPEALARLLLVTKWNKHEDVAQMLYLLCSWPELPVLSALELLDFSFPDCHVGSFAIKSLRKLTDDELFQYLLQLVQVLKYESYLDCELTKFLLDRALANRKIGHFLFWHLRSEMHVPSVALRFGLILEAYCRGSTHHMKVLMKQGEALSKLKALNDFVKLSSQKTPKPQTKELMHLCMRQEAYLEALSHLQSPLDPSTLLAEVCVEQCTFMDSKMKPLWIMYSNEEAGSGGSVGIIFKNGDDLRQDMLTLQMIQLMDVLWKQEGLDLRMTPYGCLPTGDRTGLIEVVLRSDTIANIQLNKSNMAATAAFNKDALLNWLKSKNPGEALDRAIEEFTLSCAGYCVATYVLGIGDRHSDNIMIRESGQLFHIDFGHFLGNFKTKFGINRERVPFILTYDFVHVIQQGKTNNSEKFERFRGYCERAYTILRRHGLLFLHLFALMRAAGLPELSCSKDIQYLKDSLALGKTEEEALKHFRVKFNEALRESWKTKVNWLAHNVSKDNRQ
Sequence of PI3Kδ (P27986 whole entry partner): as the sequence (P27986 whole entry partner) above

For `Cc1cccc(C)c1N1C(Cn2nc(-c3ccc4[nH]ccc4c3)c3c(N)ncnc32)=Nc2ccccc2S1(=O)=O` [15a, 3-((4-Amino-3-(1H-indol-5-yl)-1H-pyrazolo[3,4-d]pyrimidin-1-yl)methyl)-2-(2,6-dimethylphenyl)-2H-benzo[e][1,2,4]thiadiazine 1,1-dioxide], the IC50 in [1] was 217 ± 28 nM; in data set [2] it was over 50000 nM; in data set [3] it was 30600 ± 875 nM; in data set [4], over 50000 nM. This compound displayed a GI50 in data set [5] of 2130 ± 90 nM. Further, in [5], the “SU-DHL-6 cell proliferation inhibition (in words)” value is “significantly inhibited; also recorded: high antiproliferative potency”.

`COc1ccc(-c2nn(CC3=Nc4ccccc4S(=O)(=O)N3c3c(C)cccc3C)c3ncnc(N)c23)cc1OC` [15b, 3-((4-Amino-3-(3,4-dimethoxyphenyl)-1H-pyrazolo[3,4-d]pyrimidin-1-yl)methyl)-2-(2,6-dimethylphenyl)-2H-benzo[e][1,2,4]thiadiazine 1,1-dioxide]: the melting point was 220 to 222 °C. For the same compound, the half-inhibitory concentration (IC50) in [1] was 266 ± 31 nM. In [2], 16400 ± 768 nM corresponded to half-maximal inhibition (IC50). The “selectivity for PI3Kδ over PI3Kα” value in [2] (ratio of IC50 values) is listed as “more than 60 fold”. The same compound showed an IC50 in data set [3] of 24200 ± 495 nM. Further, the “selectivity for PI3Kδ over PI3Kβ” value in [3] (ratio of IC50 values) is on record as over 90 fold. In data set [4], this compound displayed an IC50 of 5840 ± 135 nM. In addition, in data set [5], growth was halved (GI50) at 2500 ± 110 nM and the “SU-DHL-6 cell proliferation inhibition (in words)” value was “significantly inhibited; also recorded: high antiproliferative potency”.

For the compound `COc1ccc(-c2nn(CC3=Nc4ccccc4S(=O)(=O)N3c3c(C)cccc3C)c3ncnc(N)c23)cc1F` [15c, 3-((4-Amino-3-(3-fluoro-4-methoxyphenyl)-1H-pyrazolo[3,4-d]pyrimidin-1-yl)methyl)-2-(2,6-dimethyl-phenyl)-2H-benzo[e][1,2,4]thiadiazine 1,1-dioxide], in data set [1], the IC50 was 980 ± 45 nM and the “PI3Kδ inhibitory activity (in words)” value is “marginal activity”.

As for `COc1ccc(-c2nn(CC3=Nc4ccccc4S(=O)(=O)N3c3c(C)cccc3C)c3ncnc(N)c23)cn1` [15d, 3-((4-Amino-3-(6-methoxypyridin-3-yl)-1H-pyrazolo[3,4-d]pyrimidin-1-yl)methyl)-2-(2,6-dimethylphenyl)-2H-benzo[e][1,2,4]thiadiazine 1,1-dioxide], the IC50 in data set [1] amounted to 498 ± 33 nM.

In turn, `Cc1cccc(C)c1N1C(Cn2nc(-c3ccc4c(c3)OCCO4)c3c(N)ncnc32)=Nc2ccccc2S1(=O)=O` [15e, 3-((4-Amino-3-(2,3-dihydrobenzo[b][1,4]dioxin-6-yl)-1H-pyrazolo[3,4-d]pyrimidin-1-yl)methyl)-2-(2,6-dimethylphenyl)-2H-benzo[e][1,2,4]thiadiazine 1,1-dioxide] had a melting point of 225 to 226 °C. Also, in [1], the IC50 is over 1000 nM and the “PI3Kδ inhibitory activity (in words)” value is on record as “not tolerated”.

`Cc1cccc(C)c1N1C(Cn2nc(-c3ccc4c(c3)OCO4)c3c(N)ncnc32)=Nc2ccccc2S1(=O)=O` [15f, 3-((4-Amino-3-(benzo[d][1,3]dioxol-5-yl)-1H-pyrazolo[3,4-d]pyrimidin-1-yl)methyl)-2-(2,6-dimethyl-phenyl)-2H-benzo[e][1,2,4]thiadiazine 1,1-dioxide] returned a melting point of over 250 °C. In [1], the IC50 was over 1000 nM and the “PI3Kδ inhibitory activity (in words)” value is “not tolerated”.

For the compound `COc1ccc(-c2nn(CC3=Nc4ccccc4S(=O)(=O)N3c3c(C)cccc3C)c3ncnc(N)c23)cc1` [15g, 3-((4-Amino-3-(4-methoxyphenyl)-1H-pyrazolo[3,4-d]pyrimidin-1-yl)methyl)-2-(2,6-dimethylphenyl)-2H-benzo[e][1,2,4]thiadiazine 1,1-dioxide], in [1], the IC50 is over 1000 nM and the “PI3Kδ inhibitory activity (in words)” value is on record as “not tolerated”.

`COc1cccc(-c2nn(CC3=Nc4ccccc4S(=O)(=O)N3c3c(C)cccc3C)c3ncnc(N)c23)c1` [15h, 3-((4-Amino-3-(3-methoxyphenyl)-1H-pyrazolo[3,4-d]pyrimidin-1-yl)methyl)-2-(2,6-dimethylphenyl)-2H-benzo[e][1,2,4]thiadiazine 1,1-dioxide]: in [1], the half-inhibitory concentration (IC50) is over 1000 nM and the “PI3Kδ inhibitory activity (in words)” value was “not tolerated”.

The compound `Cc1cccc(C)c1N1C(Cn2nc(-c3ccc(OC(F)(F)F)cc3)c3c(N)ncnc32)=Nc2ccccc2S1(=O)=O` [15i, 3-((4-Amino-3-(4-(trifluoromethoxy)phenyl)-1H-pyrazolo[3,4-d]pyrimidin-1-yl)methyl)-2-(2,6-dimethyl-phenyl)-2H-benzo[e][1,2,4]thiadiazine 1,1-dioxide] showed a melting point of 206 to 207 °C. For the same compound, in [1], the IC50 was over 1000 nM and the “PI3Kδ inhibitory activity (in words)” value is listed as “not tolerated”.

Turning to `Cc1cccc(C)c1N1C(Cn2nc(-c3ccccc3)c3c(N)ncnc32)=Nc2ccccc2S1(=O)=O` [15j, 3-((4-Amino-3-phenyl-1H-pyrazolo[3,4-d]pyrimidin-1-yl)methyl)-2-(2,6-dimethylphenyl)-2H-benzo[e]-[1,2,4]thiadiazine 1,1-dioxide], in data set [1], the IC50 was over 1000 nM and the “PI3Kδ inhibitory activity (in words)” value is listed as “not tolerated”.

The compound `Cc1cccc(C)c1N1C(Cn2nc(-c3ccc4[nH]ccc4c3)c3c(N)ncnc32)=Nc2ccc(F)cc2S1(=O)=O` [16a, 3-((4-Amino-3-(1H-indol-5-yl)-1H-pyrazolo[3,4-d]pyrimidin-1-yl)methyl)-2-(2,6-dimethylphenyl)-7-fluoro-2H-benzo[e][1,2,4]thiadiazine 1,1-dioxide] returned a melting point of 132 to 133 °C. In addition, in [1], the IC50 is over 1000 nM and the “PI3Kδ inhibitory activity (in words)” value was “lost its activity”.

In the case of `COc1ccc(-c2nn(CC3=Nc4ccc(F)cc4S(=O)(=O)N3c3c(C)cccc3C)c3ncnc(N)c23)cc1OC` [16b, 3-((A-amino-3-(3,4-dimethoxyphenyl)-1H-pyrazolo[3,4-d]pyrimidin-1-yl)methyl)-2-(2,6-dimethylphenyl)-7-fluoro-2H-benzo[e][1,2,4]thiadiazine 1,1-dioxide], the melting point is 229 to 230 °C. Also, in [1], the IC50 came out at 518 ± 62 nM and the “decrease in PI3Kδ potency on introduction of 7-fluorine” value is reported as about 2 fold.

`COc1ccc(-c2nn(CC3=Nc4ccc(F)cc4S(=O)(=O)N3c3c(C)cccc3C)c3ncnc(N)c23)cc1F` [16c, 3-((4-Amino-3-(3-fluoro-4-methoxyphenyl)-1H-pyrazolo[3,4-d]pyrimidin-1-yl)methyl)-2-(2,6-dimethyl-phenyl)-7-fluoro-2H-benzo[e][1,2,4]thiadiazine 1,1-dioxide] returned a melting point of 201 to 202 °C. In data set [1], the IC50 was 824 ± 76 nM and the “PI3Kδ inhibitory activity (in words)” value is listed as “slight increase in potency”.

For `COc1ccc(-c2nn(CC3=Nc4ccc(F)cc4S(=O)(=O)N3c3c(C)cccc3C)c3ncnc(N)c23)cn1` [16d, 3-((4-Amino-3-(6-methoxypyridin-3-yl)-1H-pyrazolo[3,4-d]pyrimidin-1-yl)methyl)-2-(2,6-dimethylphenyl)-7-fluoro-2H-benzo[e][1,2,4]thiadiazine 1,1-dioxide], in [1], the IC50 worked out at 823 ± 69 nM and the “decrease in PI3Kδ potency on introduction of 7-fluorine” value is listed as about 2 fold.

In turn, `CC[C@H](Nc1ncnc2[nH]cnc12)c1nc2cccc(F)c2c(=O)n1-c1ccccc1` [CAL-101, reference compound] displayed a GI50 in data set [5] of 39 ± 11 nM.

`Cc1cccc(C)c1-n1c(Cn2nc(-c3ccc4[nH]ccc4c3)c3c(N)ncnc32)nc2cccc(F)c2c1=O` [compound 3]: the “selectivity for PI3Kδ over PI3Kγ” value in data set [6] is over 40 fold. The “selectivity for PI3Kδ over PI3Kα” value in [7] is reported as “more than 3630 fold”. Besides, the “selectivity for PI3Kδ over PI3Kβ” value in data set [8] is over 390 fold.

As for `COc1ccc(-c2nn(Cc3nc4cccc(F)c4c(=O)n3-c3c(C)cccc3C)c3ncnc(N)c23)cc1OC` [compound 4], in data set [6], the “selectivity for PI3Kδ over PI3Kγ” value is 7 fold. Further, the “selectivity for PI3Kδ over PI3Kα” value in data set [7] is on record as “more than 1400 fold”. Moreover, the “selectivity for PI3Kδ over PI3Kβ” value in data set [8] was over 820 fold.

In general, IC50 refers to the concentration that gives 50% inhibition. What is called GI50 is the concentration giving 50% growth inhibition. Lower therefore signals more potent growth inhibition. By melting point is commonly meant the temperature of the solid-liquid transition.
